Laboratory results published in US4987121A, “Erythropoietic factor” (Center for Innovative Technology, priority 1988, dated 1991).
Ends that are not written are not given here.

Tests used:
[1] = tested on: erythroid precursors (BFU-E and CFU-E); experiment: erythroid progenitor BFU-E and CFU-E assay (statements covering both progenitors); type: cell-based, human; details: for effect on the stimulatory effect of Epo on both BFU-E and CFU-E: ANF analog 0.32 nM + Epo 250 mU/ml; for potentiation of erythropoiesis versus concentration: with Epo
Source text: (§1) Utilization of cell culture techniques allowed for the detection of molecules other than Epo which act on erythropoietic precursor cells. […] The erythroid progenitor BFU-E and CFU-E assay was utilized for the in vitro studies by the following method:
(§2) (1) Collect bone marrow cells from normal human volunteers after obtaining informed consent.
(§3) (2) Suspend cells in α-medium containing 10% fetal calf serum.
(§4) (3) Separate by Ficoll-Hypaque gradient to obtain an enriched mononuclear cell population.
(§5) (4) Culture cells (5×10^4 per plate) in petri dishes using a methylcellulose technique (see, Iscove, J. Cell Physiol 83: 309, (1974)).
(§6) (5) Add Human Epo, available from the Toyoba Corp. of New York, N.Y., to the culture on day zero.
(§7) (6) Add ANF-like peptides on days zero, two, five, eight, and eleven.
(§8) In the absence of Epo, ANF has no effect on erythroid colony formation. In FIG. 1, the effects of α-ANF[1-28] alone and in conjunction with an added amount of Epo were studied. Human α-ANF[1-28] diluted in α-medium, obtained from the Peninsula Corporation, was added to the cultures every three days starting at day zero. Control cultures were supplemented with Phosphate Buffered Saline (PBS) alone. PBS is available from the GIBCO corporation of Grand Island, N.Y. Triplicate plates were incubated at 37° C. in a humidified atmosphere of 7% CO2 in air. On the eighth day, cell aggregates which contained more than seven erythroid cells were counted as CFU-E. On the fourteenth day, aggregates of forty cells or more were counted as BFU-E. Hemoglobinization of the cells was confirmed by using a Soret band and morphologically from stained smears. In FIG. 1, the number of observations is indicated in the bottom part of the bar. The standard estimates from mean (SEM) are indicated as error bars. Statistical significances were obtained by using Kruskal-Wallis Analysis of Variance (one way by ranks). Probabilities in FIGS. 1 and 2 are indicated by: 1*=p<0.05; 2*=p<0.01;3*=p<0.005; and 4*=p<0.001. […] The relative increase of Epo activity caused by the presence of ANF is the subject of this invention.
The numbers were determined using the lowest ANF concentration as a reference point in each group. There were six observations per group. […] The number values for BFU-E and CFU-E in a culture containing 0.25 U/ml Epo and 0.32 nM α-ANF[1-28] are different for FIGS. 1 and 2 because different human volunteer bone marrow donors were used for each study. The absolute numbers are not the focus of this invention, rather, the subject of this invention is the relative increase in the production of BFU-E and CFU-E caused by Epo in the presence of ANF.

peripheral blood BFU-E = peripheral blood BFU-E assay in the absence of T cells and macrophages; type: cell-based, human; details: for BFU-E/culture ± SEM: peripheral blood cells, T cells and macrophages removed
Method: The cultures contained peripheral blood derived cells instead of bone marrow cells. After Ficoll-Hypaque separation, preparations from peripheral blood were further incubated in plastic dishes twice for thirty minutes to remove macrophages. The majority of T cells were removed by rosetting with sheep red blood cells, available from the Lampire Corporation of Pipersville, Pa., and centrifugation. The remaining T-cells were removed by incubating the cell suspension with Leu-1 antibody, available from Becton-Dickenson, Inc. of Mountain View, Calif., and rabbit complement. Less than 0.3% of macrophages and T cells could be detected in the remaining cell suspension. The probabilities in Table 1 are as follows: *=p<0.025 and **=p<0.005. There were three observations per group. As shown by Table 1, the number of peripheral blood derived BFU-E increased three fold in the presence 0.32 nM of α-ANF[1-28] in cultures containing 250 mU/ml of Epo and less than 0.3% of T cells and macrophages.

BFU-E = experiment: erythroid progenitor BFU-E assay, human bone marrow cells in methylcellulose culture; type: cell-based; details: for Potentiation of BFU-E(%): ANF analog 0.32 nM + Epo 250 mU/ml, relative to effect of α-ANF[1-28] (100%)
Source text: as §1, §2, §3, §4, §5, §6, §7, §8

CFU-E = experiment: erythroid progenitor CFU-E assay, human bone marrow cells in methylcellulose culture; type: cell-based; details: for Potentiation of CFU-E(%): ANF analog 0.32 nM + Epo 250 mU/ml, relative to effect of α-ANF[1-28] (100%)
Source text: as §1, §2, §3, §4, §5, §6, §7, §8

[2] = in the presence of α-ANF[1-28] 0.32 nM and Epo 250 mU/ml

Substance | effect on the stimulatory effect of Epo on both BFU-E and CFU-E [1] | Potentiation of BFU-E(%) (BFU-E) | Potentiation of CFU-E(%) (CFU-E) | other results
erythropoietin [Epo] |  |  |  | BFU-E and CFU-E yield ([1]; 2,000 mU/ml of Epo compared with 250 mU/ml of Epo, identical α-ANF[1-28] concentrations): higher; effect of Epo alone on erythroid precursors ([1]; Epo alone 250 mU/ml): stimulated both erythroid precursors; BFU-E/culture ± SEM (peripheral blood BFU-E; Experiment 1, Epo 250 mU/ml alone): 7.0 ± 0.9; BFU-E/culture ± SEM (peripheral blood BFU-E; Experiment 2, Epo 250 mU/ml alone): 14.0 ± 2.0
α-ANF [1-11] (SLRRSSCFGGR; Atrial natriuretic peptide; UniProt P01160 124-134, looked up, fragment) [ANF[1-11], ANF analog available from the Peninsula Corporation] | not significant | -1.5 ± 8.8% | 14.8 ± 4.6% | 
α-ANF dimer | not significant | 40.2 ± 26.7% | 25.4 ± 13.1% | 
α-ANF[1-28] (SLRRSSCFGGRMDRIGAQSGLGCNSFRY; not fully specified; ends and bridges not checked; UniProt P01160 124-151, looked up) [human atrial natriuretic factor peptide, obtained from the Peninsula Corporation] | enhanced | 100 ± 24.9% | 100 ± 39.2% | effect on erythroid precursors / erythroid colony formation in the absence of Epo ([1]; ANF alone, no Epo (0.32 nM in FIG. 1)): no effect; increase of BFU-E and CFU-E production ([1]; in the presence of Epo): up to four fold; potentiation of erythropoiesis versus concentration ([1]; α-ANF[1-28] concentrations above 0.96 nM): leveled off or even declined; potentiation of erythropoiesis versus concentration ([1]; α-ANF[1-28] increased from 0.032 nM to 0.96 nM): concentration dependent potentiation; increase in BFU-E (BFU-E; Epo 250 mU/ml plus α-ANF[1-28] 0.32 nM versus Epo alone (FIG. 1)): four-fold; actual numbers of BFU-E (BFU-E; [2]): 103±26; increase in CFU-E (CFU-E; Epo 250 mU/ml plus α-ANF[1-28] 0.32 nM versus Epo alone): two-fold; actual numbers of CFU-E (CFU-E; [2]): 440±176; increase in number of peripheral blood derived BFU-E (peripheral blood BFU-E; 0.32 nM α-ANF[1-28], 250 mU/ml Epo, less than 0.3% of T cells and macrophages): three fold; BFU-E/culture ± SEM (peripheral blood BFU-E; Experiment 1, ANF 0.32nM + Epo 250 mU/ml): 22.7 ± 1.9; BFU-E/culture ± SEM (peripheral blood BFU-E; Experiment 2, ANF 0.32nM + Epo 250 mU/ml): 42.3 ± 6.8
α-ANF[4-28] (RSSCFGGRMDRIGAQSGLGCNSFRY; ends and bridges not checked; cysteine pairing not given here; UniProt P01160 127-151, looked up, fragment) [ANF analog available from the Peninsula Corporation; a major circulatory form of ANF] | enhanced | 74.8 ± 15.3% | 208 ± 41.0% | 
α-ANF[5-28] (SSCFGGRMDRIGAQSGLGCNSFRY; ends and bridges not checked; cysteine pairing not given here; UniProt P01160 128-151, looked up, fragment) [ANF analog available from the Peninsula Corporation; a major circulatory form of ANF] | enhanced | 98.5 ± 38.6% | 143 ± 26.7% | 
